Measurements reported in the supplement of paper PMC8967900.

What was measured:
Experiment in all cases: selective drug sensitivity score (sDSS, relative to normal bone marrow) (sDSS (score)); higher = more potent and effective on the cell line relative to normal bone marrow cells
Details in all cases: 72 h
LC4-1 = system: LC4-1
PEER = system: PEER
CCRF-HSB2 = system: CCRF-HSB2
P30-OHKUBO = system: P30-OHKUBO
TMD5 = system: TMD5
DND-41 = system: DND-41
KASUMI-2 = system: KASUMI-2
COG-LL-319h = system: COG-LL-319h
MOLT-4 = system: MOLT-4
MN-60 = system: MN-60
COG-LL-355h = system: COG-LL-355h
COG-LL-394h = system: COG-LL-394h
MHH-CALL-4 = system: MHH-CALL-4
PF-382 = system: PF-382
COG-LL-332h = system: COG-LL-332h
KASUMI-10 = system: KASUMI-10
KARPAS-45 = system: KARPAS-45
RCH-ACV = system: RCH-ACV
P12-ICHIKAWA = system: P12-ICHIKAWA
ALL-PO = system: ALL-PO
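Note: ALL cell lines in 384-well plates, five doses spanning 10,000-fold, each plate scaled between vehicle and 100 µmol/L benzalkonium chloride controls, sDSS an adapted area-under-curve metric.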

Structure (SMILES)	selective drug sensitivity score (LC4-1)	selective drug sensitivity score (PEER)	selective drug sensitivity score (CCRF-HSB2)	selective drug sensitivity score (P30-OHKUBO)	selective drug sensitivity score (TMD5)	selective drug sensitivity score (DND-41)	selective drug sensitivity score (KASUMI-2)	selective drug sensitivity score (COG-LL-319h)	selective drug sensitivity score (MOLT-4)	selective drug sensitivity score (MN-60)	selective drug sensitivity score (COG-LL-355h)	selective drug sensitivity score (COG-LL-394h)	selective drug sensitivity score (MHH-CALL-4)	selective drug sensitivity score (PF-382)	selective drug sensitivity score (COG-LL-332h)	selective drug sensitivity score (KASUMI-10)	selective drug sensitivity score (KARPAS-45)	selective drug sensitivity score (RCH-ACV)	selective drug sensitivity score (P12-ICHIKAWA)	selective drug sensitivity score (ALL-PO)
C/C(=C\c1csc(C)n1)[C@@H]1C[C@@H]2O[C@]2(C)CCC[C@H](C)[C@H](O)[C@@H](C)C(=O)C(C)(C)[C@@H](O)CC(=O)N1 [Ixabepilone] (top concentration 1000 nM)	5.08	3.28	3.18	3.78	0.28	1.28	1.48	3.68	3.98	1.48	2.48	2.18	0.58	1.68	4.08	1.58	3.68	6.78	2.58	2.28
Nc1cc(COc2c(Cl)cc(C[C@H](N)C(=O)O)cc2Cl)c2oc(-c3ccccc3)nc2c1 [JPH203] (top concentration 5000 nM)	0	0	0	2.2	2.1	0	0	0	0	0	1.5	0	1.2	0	0	0.2	0	4.5	0	0
CS(=O)(=O)CCNCc1ccc(-c2ccc3ncnc(Nc4ccc(OCc5cccc(F)c5)c(Cl)c4)c3c2)o1 [Lapatinib] (top concentration 1000 nM)	0	0	0	0.3	0	0	0	0	0	0	0	0	0	0	0	0	0	0	0	0
Oc1ccc2c(c1)CC[C@H](c1ccccc1)[C@@H]2c1ccc(OCCN2CCCC2)cc1 [Lasofoxifene] (top concentration 1000 nM)	-1.28	-1.28	-1.28	-1.28	-1.28	-1.28	-1.28	2.62	-1.28	-1.28	-1.28	-1.28	-1.28	-0.98	-1.28	-1.28	-1.28	-1.28	-1.28	-1.28
Cc1ccc(F)c(NC(=O)Nc2ccc(-c3cccc4[nH]nc(N)c34)cc2)c1 [Linifanib] (top concentration 1000 nM)	-1.12	-1.12	-1.12	-1.12	-1.12	-0.02	-1.12	-1.12	-1.12	-1.12	-1.12	-1.12	-1.12	-1.12	-1.12	6.08	-1.12	-1.12	-1.12	-1.12
Cc1c(F)cc(C(=O)NC2CC2)cc1-c1ccc(C(=O)NCC(C)(C)C)cn1 [Losmapimod] (top concentration 10000 nM)	3.32	-0.08	-0.08	7.82	-0.18	-0.18	-0.18	-0.18	-0.18	-0.18	1.92	-0.18	-0.18	0.02	-0.18	-0.18	-0.18	11.5	-0.18	-0.18
CNC(=O)c1cccc2cc(Oc3ccnc4cc(OCC5(N)CC5)c(OC)cc34)ccc12 [Lucitanib] (top concentration 10000 nM)	1.68	3.08	3.88	5.88	0.98	5.08	3.48	1.98	4.18	-0.62	-0.62	1.58	-0.62	1.38	2.88	5.18	3.18	6.38	1.28	2.08
O=C1c2c(O)ccc(O)c2C(=O)c2c(NCCNCCO)ccc(NCCNCCO)c21 [Mitoxantrone] (top concentration 1000 nM)	6.74	-6.26	14.2	7.84	4.54	2.84	12.3	16.3	8.34	-3.86	7.94	13.2	11.1	-1.86	11.7	12.7	-1.66	16.2	8.84	-0.06
CC1(C)CNc2cc(NC(=O)c3cccnc3NCc3ccncc3)ccc21 [Motesanib] (top concentration 10000 nM)	-0.22	0.38	1.08	-0.22	-0.22	-0.22	-0.22	0.08	-0.22	-0.22	-0.22	0.78	-0.22	-0.22	-0.22	-0.22	-0.22	-0.22	-0.22	-0.22
CCCN(CCC)C(=O)C1=Cc2ccc(-c3ccc(C(=O)N4CCCC4)cc3)cc2N=C(N)C1 [Motolimod] (top concentration 10000 nM)	-3.58	-3.18	-3.48	-1.58	-3.48	-4.08	-4.48	-4.18	-4.08	-4.48	-2.38	0.42	-4.48	-2.28	-3.18	-2.28	-3.48	-1.68	-3.18	-3.88
Cc1cc(-c2ncc(CC(=O)Nc3ccc(-c4cnccn4)cn3)cc2C)ccn1 [NVP-LGK974] (top concentration 10000 nM)	1.2	6.9	0.5	2.1	3.4	1.3	1	-1.3	3.9	4.7	3.3	6.2	3.5	2.7	0.5	0.8	4.6	5.6	3.2	3.4
CC1(C)NC(=O)N(c2ccc([N+](=O)[O-])c(C(F)(F)F)c2)C1=O [Nilutamide] (top concentration 10000 nM)	-0.48	0.32	-0.48	-0.18	3.42	-0.38	-0.48	-0.48	-0.48	-0.48	-0.48	-0.48	2.02	-0.08	-0.48	0.22	-0.48	-0.48	-0.48	-0.08
CNC(=O)c1ccc2cc([C@@]3(O)CCn4cncc43)ccc2c1 [Orteronel] (top concentration 10000 nM)	4.9	0	0	0	0	0	4.6	4.9	0	0	0	0	0	0	0	0	0	0	0	0
C=CCc1cccc(/C=N/NC(=O)CN2CCN(Cc3ccccc3)CC2)c1O [PAC-1] (top concentration 10000 nM)	0.18	2.58	1.78	1.18	0.98	4.78	-0.72	1.18	2.58	4.08	2.08	1.08	1.18	2.78	7.08	0.98	3.28	1.18	1.68	0.98
O=C(Nc1cccnc1)N1CCC(Cc2cccc(Oc3ccc(C(F)(F)F)cn3)c2)CC1 [PF-3845] (top concentration 10000 nM)	-0.54	7.06	3.26	0.46	-0.94	-0.24	-0.24	-0.04	2.36	3.06	-0.54	3.96	0.96	1.96	2.16	-1.34	3.96	5.66	3.26	2.36
COc1cc(Br)c(Nc2nc(-c3c(C)nc4ncccn34)cs2)c(Br)c1 [PTC-209] (top concentration 10000 nM)	0.12	-0.38	0.72	4.52	-2.18	-1.18	-2.68	4.12	-0.48	0.42	-0.38	-2.58	-2.68	-0.68	-1.08	0.92	0.02	7.12	0.42	-0.98
C=CC(=O)N1CCC(Oc2cc3c(Nc4ccc(Cl)c(Cl)c4F)ncnc3cc2OC)CC1 [Poziotinib] (top concentration 1000 nM)	0.78	-0.22	3.68	-0.22	1.28	2.08	5.98	3.98	-0.22	-0.22	-0.22	-0.22	0.68	-0.22	1.48	-0.22	-0.22	4.98	-0.22	-0.22
CC[C@H](C)C(=O)O[C@H]1C[C@H](O)C=C2C=C[C@H](C)[C@H](CC[C@@H](O)C[C@@H](O)CC(=O)O)[C@H]21 [Pravastatin] (top concentration 10000 nM)	3.04	-0.66	-0.66	-0.66	-0.66	-0.66	-0.66	0.64	-0.66	-0.66	-0.56	-0.66	-0.66	-0.66	-0.66	-0.66	-0.66	-0.56	-0.66	-0.66
